{"source": "ChEMBL document CHEMBL1201862", "about": "“PubChem BioAssay data set” (2004)", "key": {"[1]": {"test": "cytotoxicity in MIN6 insulinoma cells, dose response, cytotoxicity control, cell-based, mouse insulinoma (AID 2122);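 further: confirmatory high-throughput counterscreen run to flag cytotoxic compounds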", "type": "functional"}, "[2]": {"test": "control 3'UTR Renilla luciferase suppression, dose response, counter-screen for Shn3 inhibitor project, cell-based, Clone20-Shn3RL, cherry-picked (AID 624133)", "type": "functional"}, "[3]": {"test": "HepG2 cell cytotoxicity, dose response, cytotoxicity control for Shn3 inhibitor project, CellTiter-Glo, cherry-picked (AID 624134)", "type": "functional, cell-based"}, "[4]": {"test": "insulin promoter down-regulators in MIN6 cells, imaging, high-content screening, mouse beta cells (AID 1628)", "type": "functional"}, "[5]": {"test": "Shn3 3'UTR reporter inhibitors, dose response, cell-based, Clone20 osteoblasts, firefly luciferase, cherry-picked (AID 624132)", "type": "functional"}, "[6]": {"molecular_target": "T1, Endoribonuclease toxin MazF (Escherichia coli K-12, UniProt P0AE70)", "T1 sequence (P0AE70 whole entry)": "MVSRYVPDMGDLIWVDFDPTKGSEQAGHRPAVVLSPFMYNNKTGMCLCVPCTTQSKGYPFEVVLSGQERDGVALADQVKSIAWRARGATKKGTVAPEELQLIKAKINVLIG", "test": "fluorescent RNA oligo signal without MazF, dose response, counter-screen for MazEF activator project, biochemical, fluorescence, single-stranded RNase substrate (AID 588502)", "type": "functional"}, "[7]": {"molecular_target": "T1, Endoribonuclease toxin MazF", "test": "MazF toxin RNase activators, dose response, biochemical, fluorescence, single-stranded RNA substrate, uHTS hits (AID 588481)", "type": "functional"}, "Cytochrome P450 2C19": {"molecular_target": "Cytochrome P450 2C19 (Homo sapiens, UniProt P33261)", "sequence (P33261 whole entry)": "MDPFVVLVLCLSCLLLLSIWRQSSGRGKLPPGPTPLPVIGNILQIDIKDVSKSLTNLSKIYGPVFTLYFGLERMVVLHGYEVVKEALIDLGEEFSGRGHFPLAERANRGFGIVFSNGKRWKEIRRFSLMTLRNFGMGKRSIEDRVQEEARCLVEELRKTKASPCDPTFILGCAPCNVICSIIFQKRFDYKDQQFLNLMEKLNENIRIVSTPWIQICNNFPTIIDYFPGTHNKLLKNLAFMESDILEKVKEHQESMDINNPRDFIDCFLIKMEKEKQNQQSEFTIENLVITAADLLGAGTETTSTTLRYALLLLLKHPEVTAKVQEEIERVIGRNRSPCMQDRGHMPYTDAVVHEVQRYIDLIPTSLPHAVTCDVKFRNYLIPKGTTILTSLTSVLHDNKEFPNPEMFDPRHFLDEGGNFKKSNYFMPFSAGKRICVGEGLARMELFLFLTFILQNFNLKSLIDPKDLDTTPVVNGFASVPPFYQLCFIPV", "test": "Cytochrome panel assay with activity outcomes. Panel member name: p450-cyp2c19 Compounds with AC50 equal or less than 10 uM are considered active", "type": "functional", "settings": "read-out: AC50"}, "Cytochrome P450 3A4 [8]": {"molecular_target": "T2, Cytochrome P450 3A4 (Homo sapiens, UniProt P08684)", "T2 sequence (P08684 whole entry)": "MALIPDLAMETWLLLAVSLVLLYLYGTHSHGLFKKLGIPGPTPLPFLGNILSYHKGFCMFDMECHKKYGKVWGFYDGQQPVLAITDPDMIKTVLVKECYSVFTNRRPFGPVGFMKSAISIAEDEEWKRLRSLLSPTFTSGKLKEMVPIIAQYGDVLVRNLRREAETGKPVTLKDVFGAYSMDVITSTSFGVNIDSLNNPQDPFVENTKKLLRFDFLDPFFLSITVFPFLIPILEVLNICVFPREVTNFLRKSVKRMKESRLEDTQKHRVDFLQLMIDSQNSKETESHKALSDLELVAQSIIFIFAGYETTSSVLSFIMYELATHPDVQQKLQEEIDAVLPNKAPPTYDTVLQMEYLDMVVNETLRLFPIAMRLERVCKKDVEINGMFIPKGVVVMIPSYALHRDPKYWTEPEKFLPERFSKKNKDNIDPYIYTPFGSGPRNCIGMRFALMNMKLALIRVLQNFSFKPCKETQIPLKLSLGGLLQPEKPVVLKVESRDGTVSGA"}, "Cytochrome P450 2C9": {"molecular_target": "Cytochrome P450 2C9 (Homo sapiens, UniProt P11712)", "sequence (P11712 whole entry)": "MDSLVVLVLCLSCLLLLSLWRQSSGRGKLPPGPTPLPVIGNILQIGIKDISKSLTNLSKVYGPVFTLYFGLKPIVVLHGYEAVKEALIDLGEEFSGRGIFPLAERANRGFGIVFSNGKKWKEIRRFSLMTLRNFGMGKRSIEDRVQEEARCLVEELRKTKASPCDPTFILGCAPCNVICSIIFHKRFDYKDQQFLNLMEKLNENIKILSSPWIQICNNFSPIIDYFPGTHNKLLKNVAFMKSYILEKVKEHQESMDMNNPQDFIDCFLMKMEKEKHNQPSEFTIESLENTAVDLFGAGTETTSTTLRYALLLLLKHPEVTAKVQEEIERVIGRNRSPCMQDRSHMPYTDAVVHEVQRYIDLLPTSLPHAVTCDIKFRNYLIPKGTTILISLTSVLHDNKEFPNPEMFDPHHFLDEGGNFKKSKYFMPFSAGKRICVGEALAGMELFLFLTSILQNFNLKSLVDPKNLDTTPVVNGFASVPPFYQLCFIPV"}, "Cytochrome P450 1A2": {"molecular_target": "T3, Cytochrome P450 1A2 (Homo sapiens, UniProt P05177)", "T3 sequence (P05177 whole entry)": "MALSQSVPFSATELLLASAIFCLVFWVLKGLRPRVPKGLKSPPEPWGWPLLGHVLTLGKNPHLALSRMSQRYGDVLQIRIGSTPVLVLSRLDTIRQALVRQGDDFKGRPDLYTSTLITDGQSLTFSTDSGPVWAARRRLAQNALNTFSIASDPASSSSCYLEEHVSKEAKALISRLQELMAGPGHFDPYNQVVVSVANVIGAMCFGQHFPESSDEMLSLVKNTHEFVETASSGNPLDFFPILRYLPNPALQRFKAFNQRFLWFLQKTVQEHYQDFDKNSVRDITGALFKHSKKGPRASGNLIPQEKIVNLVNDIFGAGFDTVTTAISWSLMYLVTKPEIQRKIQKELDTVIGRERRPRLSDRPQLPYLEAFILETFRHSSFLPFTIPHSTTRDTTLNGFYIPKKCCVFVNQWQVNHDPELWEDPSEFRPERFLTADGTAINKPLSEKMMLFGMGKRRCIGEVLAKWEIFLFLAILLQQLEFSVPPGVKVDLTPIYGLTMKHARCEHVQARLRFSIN"}, "[9]": {"test": "THP-1 cell cytotoxicity, dose response, cytotoxicity control for non-replicating M. tuberculosis project (AID 489025)", "type": "functional"}, "cells [10]": {"test": "cells", "type": "functional"}, "[11]": {"test": "Vero E6 cell cytotoxicity, dose response, cytotoxicity control for non-replicating M. tuberculosis project, secondary assay (AID 492998)", "type": "functional, VeroE6", "settings": "Vero C1008"}, "Cytochrome P450 2D6": {"molecular_target": "Cytochrome P450 2D6 (Homo sapiens, UniProt P10635)"}, "[12]": {"molecular_target": "T4, Polyadenylate-binding protein 1 (Homo sapiens, UniProt P11940)", "T4 sequence (P11940 whole entry)": "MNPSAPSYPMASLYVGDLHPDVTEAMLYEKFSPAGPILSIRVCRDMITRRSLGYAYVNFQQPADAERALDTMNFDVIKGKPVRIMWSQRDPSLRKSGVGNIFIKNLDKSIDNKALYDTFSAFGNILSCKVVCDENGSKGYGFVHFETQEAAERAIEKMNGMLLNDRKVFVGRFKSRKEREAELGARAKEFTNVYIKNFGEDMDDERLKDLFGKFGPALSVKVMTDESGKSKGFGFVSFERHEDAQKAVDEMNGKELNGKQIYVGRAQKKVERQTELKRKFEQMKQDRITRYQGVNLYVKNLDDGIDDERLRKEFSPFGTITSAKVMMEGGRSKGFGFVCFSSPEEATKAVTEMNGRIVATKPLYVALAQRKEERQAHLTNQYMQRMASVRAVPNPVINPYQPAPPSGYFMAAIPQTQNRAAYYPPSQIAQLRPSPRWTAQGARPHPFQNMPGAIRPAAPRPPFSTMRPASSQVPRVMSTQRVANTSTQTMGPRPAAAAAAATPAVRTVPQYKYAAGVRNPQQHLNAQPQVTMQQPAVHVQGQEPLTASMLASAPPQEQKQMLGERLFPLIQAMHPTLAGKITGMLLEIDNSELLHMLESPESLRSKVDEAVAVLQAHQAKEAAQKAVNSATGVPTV", "test": "PABP1 MLLE–PAM2 binding inhibitor potency, dose response, biochemical, fluorescence polarization, FITC-PAM2 peptide (AID 602259)", "type": "functional", "settings": "read-out: IC50_Mean"}, "[13]": {"molecular_target": "T4, Polyadenylate-binding protein 1", "test": "PABP1 MLLE–PAM2 interaction inhibitors, dose response, miRNA deadenylation inhibitor project, biochemical, fluorescence polarization, Cy5-PAM2 peptide, secondary (AID 602260)", "type": "functional", "settings": "read-out: IC50_Mean"}, "Fatty acid synthase [14]": {"molecular_target": "T5, Fatty acid synthase (Homo sapiens, UniProt P49327)", "T5 sequence (P49327 whole entry, the tested form may be a part)": "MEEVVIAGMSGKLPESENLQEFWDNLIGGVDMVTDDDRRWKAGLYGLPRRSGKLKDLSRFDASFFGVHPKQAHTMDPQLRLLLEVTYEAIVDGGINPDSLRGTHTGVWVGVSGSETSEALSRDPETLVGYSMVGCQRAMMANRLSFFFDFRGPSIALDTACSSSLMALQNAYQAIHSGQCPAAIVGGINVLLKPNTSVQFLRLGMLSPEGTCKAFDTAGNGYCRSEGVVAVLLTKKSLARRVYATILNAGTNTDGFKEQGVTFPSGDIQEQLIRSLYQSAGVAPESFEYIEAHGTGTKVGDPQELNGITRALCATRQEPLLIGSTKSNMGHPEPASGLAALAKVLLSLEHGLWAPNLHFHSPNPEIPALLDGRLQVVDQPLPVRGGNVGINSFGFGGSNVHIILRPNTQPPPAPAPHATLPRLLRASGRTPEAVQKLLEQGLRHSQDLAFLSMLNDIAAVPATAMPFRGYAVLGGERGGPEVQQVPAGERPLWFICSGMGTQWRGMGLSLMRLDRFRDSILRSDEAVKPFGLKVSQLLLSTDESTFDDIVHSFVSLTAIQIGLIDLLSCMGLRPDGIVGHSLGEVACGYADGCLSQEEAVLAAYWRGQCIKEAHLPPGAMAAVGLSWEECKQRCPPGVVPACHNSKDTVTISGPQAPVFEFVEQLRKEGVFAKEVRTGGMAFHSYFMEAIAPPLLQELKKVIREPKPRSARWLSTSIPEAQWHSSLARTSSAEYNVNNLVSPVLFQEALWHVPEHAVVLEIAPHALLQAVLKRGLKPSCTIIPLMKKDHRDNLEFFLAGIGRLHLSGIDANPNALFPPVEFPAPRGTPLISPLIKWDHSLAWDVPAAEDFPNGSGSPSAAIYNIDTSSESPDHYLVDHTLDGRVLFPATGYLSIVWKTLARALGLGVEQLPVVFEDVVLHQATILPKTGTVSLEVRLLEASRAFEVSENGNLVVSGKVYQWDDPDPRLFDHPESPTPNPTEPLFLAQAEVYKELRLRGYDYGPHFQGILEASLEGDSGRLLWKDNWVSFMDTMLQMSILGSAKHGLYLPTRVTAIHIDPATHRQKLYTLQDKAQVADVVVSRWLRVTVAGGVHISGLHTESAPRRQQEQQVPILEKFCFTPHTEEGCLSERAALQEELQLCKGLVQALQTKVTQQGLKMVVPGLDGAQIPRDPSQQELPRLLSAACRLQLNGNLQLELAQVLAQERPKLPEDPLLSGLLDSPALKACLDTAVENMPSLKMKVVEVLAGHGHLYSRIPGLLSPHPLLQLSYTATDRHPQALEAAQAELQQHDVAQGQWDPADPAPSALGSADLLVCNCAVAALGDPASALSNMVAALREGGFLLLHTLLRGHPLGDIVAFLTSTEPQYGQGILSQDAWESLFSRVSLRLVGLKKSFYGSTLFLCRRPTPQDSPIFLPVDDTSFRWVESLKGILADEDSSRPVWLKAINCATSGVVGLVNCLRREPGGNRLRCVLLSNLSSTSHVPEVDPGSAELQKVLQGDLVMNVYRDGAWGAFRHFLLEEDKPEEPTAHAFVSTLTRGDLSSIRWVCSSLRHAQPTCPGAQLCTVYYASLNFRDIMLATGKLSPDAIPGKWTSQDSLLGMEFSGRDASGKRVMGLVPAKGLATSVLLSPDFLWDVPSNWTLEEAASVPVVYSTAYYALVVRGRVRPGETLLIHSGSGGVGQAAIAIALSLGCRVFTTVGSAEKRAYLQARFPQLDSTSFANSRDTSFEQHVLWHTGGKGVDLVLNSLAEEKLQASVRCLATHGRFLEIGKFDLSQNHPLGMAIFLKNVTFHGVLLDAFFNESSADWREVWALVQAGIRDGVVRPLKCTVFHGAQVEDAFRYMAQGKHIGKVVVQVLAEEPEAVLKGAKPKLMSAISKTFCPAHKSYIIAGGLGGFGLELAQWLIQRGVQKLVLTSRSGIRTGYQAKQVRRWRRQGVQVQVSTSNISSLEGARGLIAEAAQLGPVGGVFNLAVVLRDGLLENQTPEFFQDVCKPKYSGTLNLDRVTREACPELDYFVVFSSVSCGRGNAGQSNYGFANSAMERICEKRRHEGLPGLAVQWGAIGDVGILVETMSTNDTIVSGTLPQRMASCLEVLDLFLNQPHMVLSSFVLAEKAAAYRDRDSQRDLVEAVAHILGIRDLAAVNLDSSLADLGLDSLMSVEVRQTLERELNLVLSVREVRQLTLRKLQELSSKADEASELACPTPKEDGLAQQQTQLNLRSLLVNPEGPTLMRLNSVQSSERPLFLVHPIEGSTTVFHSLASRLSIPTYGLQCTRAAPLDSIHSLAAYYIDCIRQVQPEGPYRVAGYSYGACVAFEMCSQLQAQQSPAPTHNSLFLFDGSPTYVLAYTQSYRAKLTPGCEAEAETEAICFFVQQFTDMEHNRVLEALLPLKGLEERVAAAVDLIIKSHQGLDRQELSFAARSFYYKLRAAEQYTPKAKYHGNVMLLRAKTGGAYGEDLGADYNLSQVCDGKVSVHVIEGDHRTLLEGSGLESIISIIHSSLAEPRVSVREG", "test": "FAS thioesterase domain inhibitors, dose response, biochemical, endpoint fluorescence intensity, uHTS hits (AID 624327);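 further: fluorescence from hydrolysis of an O-methyl fluorescein acyl ester substrate by the enzyme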", "type": "functional"}, "Fatty acid synthase [15]": {"molecular_target": "T5, Fatty acid synthase", "test": "FAS thioesterase domain inhibitors, dose response, biochemical, kinetic fluorescence intensity (AID 624326);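 further: rate of fluorescence rise from hydrolysis of a fluorogenic O-methyl fluorescein ester substrate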", "type": "functional"}, "Cytochrome P450 3A4 [16]": {"molecular_target": "T2, Cytochrome P450 3A4", "remark": "listed apart in the source"}, "cells [17]": {"test": "cells", "type": "functional, cell-based"}, "cells [18]": {"test": "cells", "type": "functional, cell-based", "remark": "listed apart in the source"}, "[19]": {"test": "inhibitors of intracellular T. cruzi replication, confirmation, NIH3T3 host cells, beta-gal luminescence (AID 2044);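 further: luminescent beta-galactosidase reporter signal from transgenic T. cruzi replicating inside host cells; inhibitors lower the luminescence signal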", "type": "functional, cell-based"}, "[20]": {"test": "C. albicans growth with fluconazole, confirmation, fluorescence, retest (AID 2467)", "type": "functional, cell-based"}, "[21]": {"test": "cytotoxicity toward NIH3T3 fibroblasts, dose response, counter-screen, cell-based, ATP luminescence, mouse fibroblasts (AID 2010);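 further: cells exposed to compound for about 90 hours before reading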", "type": "functional"}, "[22]": {"test": "NIH-3T3 fibroblast cytotoxicity, dose response, cytotoxicity control, cell-based, fluorescence, Alamar Blue, secondary assay (AID 2327);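 further: NIH-3T3 mouse fibroblasts cultured with fluconazole at 8 µg/mL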", "type": "functional"}}, "note": "Active and inactive are the calls of the source.", "data": [{"molecule": "Cn1c(=O)n(C)c2cc([N+](=O)[O-])c(N3CCN(S(=O)(=O)c4ccc(C(C)(C)C)cc4)CC3)cc21", "values": [{"measurement": "IC50", "setting": "[1]", "result": "4.02 µM (active)"}, {"measurement": "AC50", "setting": "[2]", "result": "9.33 µM (active)"}, {"measurement": "AC50", "setting": "[3]", "result": "> 70 µM (inactive)"}, {"measurement": "IC50", "setting": "[4]", "result": "2.73 µM (active)"}, {"measurement": "AC50", "setting": "[5]", "result": "3.53 µM (active)"}]}, {"molecule": "O=C(Nc1cc[n+](-c2nc3ccccc3nc2[N-]S(=O)(=O)c2ccc(Cl)cc2)cc1)c1cccs1", "values": [{"measurement": "EC50", "setting": "[6]", "result": "> 99 µM (inactive)"}, {"measurement": "EC50", "setting": "[7]", "result": "> 99 µM (inactive)"}]}, {"molecule": "C[C@H](N[C@@H](C)CCc1ccccc1)[C@H](O)c1ccc(O)cc1", "values": [{"measurement": "AC50", "setting": "Cytochrome P450 2C19", "result": "10 µM (inconclusive)"}, {"measurement": "AC50", "setting": "Cytochrome P450 3A4 [8]", "result": "inconclusive"}]}, {"molecule": "N#CCCn1c(=O)cnc2cnc(N3CCNCC3)nc21", "values": [{"measurement": "AC50", "setting": "Cytochrome P450 2C9", "result": "inconclusive"}, {"measurement": "AC50", "setting": "Cytochrome P450 1A2", "result": "12.6 µM (inconclusive)"}]}, {"molecule": "CCOc1ccc(C(C)=O)cc1N1C(=O)C2C3C=CC(O3)C2C1=O", "note": "(configuration not stated)", "values": [{"measurement": "AC50", "setting": "Cytochrome P450 2C9", "result": "inconclusive"}, {"measurement": "AC50", "setting": "Cytochrome P450 2C19", "result": "39.8 µM (inconclusive)"}]}, {"molecule": "O=S(=O)(c1cccc2nsnc12)N1CCCC1", "values": [{"measurement": "AC50", "setting": "Cytochrome P450 3A4 [8]", "result": "inconclusive"}, {"measurement": "AC50", "setting": "Cytochrome P450 1A2", "result": "14.1 µM (inconclusive)"}]}, {"molecule": "O=C(OCCNc1ccc(C(F)(F)F)cc1[N+](=O)[O-])c1cc2ccccc2oc1=O", "values": [{"measurement": "EC50", "setting": "[6]", "result": "89.7 µM (inactive)"}, {"measurement": "EC50", "setting": "[7]", "result": "27.7 µM (inactive)"}]}, {"molecule": "Cc1cc(C)c2nc(N=C(N)NC(=O)Nc3ccccc3)nc(C)c2c1", "values": [{"measurement": "CC50", "setting": "[9]", "result": "> 40 µM (active)"}, {"measurement": "IC50", "setting": "cells [10]", "result": "8.18 µM (active)"}, {"measurement": "CC50", "setting": "[11]", "result": "> 20 µM (active)"}]}, {"molecule": "CC(C)(C)n1ncc2c(=O)n(CC(=O)NCc3ccccc3Cl)cnc21", "values": [{"measurement": "AC50", "setting": "Cytochrome P450 2D6", "result": "11.2 µM (inconclusive)"}, {"measurement": "AC50", "setting": "Cytochrome P450 2C9", "result": "inconclusive"}]}, {"molecule": "Cc1ccc(NC(=O)CC2SC3=NCCN3C2=O)cc1", "note": "(configuration not stated)", "values": [{"measurement": "IC50", "setting": "[12]", "result": "> 66 µM (inactive)"}, {"measurement": "IC50", "setting": "[13]", "result": "> 66 µM (inactive)"}]}, {"molecule": "NC(=O)CSc1nnc(-c2cc(-c3cccs3)nc3ccccc23)o1", "values": [{"measurement": "EC50", "setting": "[6]", "result": "> 99 µM (inactive)"}, {"measurement": "EC50", "setting": "[7]", "result": "> 99 µM (inactive)"}]}, {"molecule": "CC1=C(CC[C@H](C)CO)O[C@@H]2C[C@@H]3[C@H]4CC[C@H]5C[C@@H](O)CC[C@]5(C)[C@@H]4CC(=O)[C@@]3(C)[C@@H]12", "values": [{"measurement": "AC50", "setting": "Cytochrome P450 3A4 [8]", "result": "inconclusive"}]}, {"molecule": "Cc1ccc(-c2nn3c(C)nnc3s2)cc1NCc1c(F)cccc1Cl", "values": [{"measurement": "IC50", "setting": "[1]", "result": "5.76 µM (active)"}, {"measurement": "IC50", "setting": "[4]", "result": "3.44 µM (active)"}]}, {"molecule": "O=C(c1ccc([N+](=O)[O-])cc1)N1CCC(Cc2ccccc2)CC1", "values": [{"measurement": "IC50", "setting": "Fatty acid synthase [14]", "result": "10.9 µM (active)"}, {"measurement": "IC50", "setting": "Fatty acid synthase [15]", "result": "8.61 µM (active)"}]}, {"molecule": "O=c1[nH]n(-c2cccc3cccnc23)c(=O)c2ccccc12", "values": [{"measurement": "AC50", "setting": "Cytochrome P450 2C9", "result": "inconclusive"}, {"measurement": "AC50", "setting": "Cytochrome P450 3A4 [16]", "result": "25.1 µM (inconclusive)"}, {"measurement": "AC50", "setting": "Cytochrome P450 1A2", "result": "6.31 µM (inconclusive)"}]}, {"molecule": "CC(=O)Nc1ccc(S(=O)(=O)Nc2ccc(S(=O)(=O)Nc3nccs3)cc2)cc1", "values": [{"measurement": "EC50", "setting": "cells [17]", "result": "> 350 µM (not active)"}, {"measurement": "EC50", "setting": "cells [18]", "result": "> 350 µM (not active)"}]}, {"molecule": "C(#Cc1ccccc1)C[N+]1(CC#Cc2ccccc2)CCCCC1", "values": [{"measurement": "EC50", "setting": "[19]", "result": "1.88 µM (active)"}, {"measurement": "IC50", "setting": "[1]", "result": "< 0.25 µM (active)"}, {"measurement": "EC50", "setting": "[20]", "result": "> 38 µM (not active)"}, {"measurement": "IC50", "setting": "[4]", "result": "< 0.25 µM (active)"}, {"measurement": "EC50", "setting": "[21]", "result": "> 60 µM (not active)"}, {"measurement": "EC50", "setting": "[22]", "result": "> 160 µM (inactive)"}]}]}
